Reference: patent US20260042764A1, “COMPOSITIONS AND METHODS FOR INHIBITION OF KRAS” (TheRas, Inc., priority 2022, published 2026)

How the values were obtained:
[1] = target: T1, Avi-KRAS WT (1-169) GppNHp/RAF1 RBD-3xFLAG (52-151) (Homo sapiens, UniProt P01116); assay: Raf1-KRAS WT-GppNHP disruption HTRF assay (Biological Example 1); format: binding
T1 construct: Avi-KRAS WT (1-169)
Summary of the method: (§1)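 First, protein mix in Tris pH 7.5 buffer with NaCl, MgCl2, BSA, Tween and 10% DMSO is incubated 1 h at room temperature. Next, reagent mix is added and incubated a further 1 h at room temperature. Finally, HTRF is read and activity normalized to DMSO.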

[2] = target: T2, Avi-KRAS G12V (1-169) GppNHp/RAF1 RBD-3xFLAG (52-151) (Homo sapiens, UniProt P01116, G12V); assay: Raf1-KRAS G12V-GppNHP disruption HTRF assay (Biological Example 1); format: binding
T2 construct: Avi-KRAS G12V (1-169)
Summary of the method: as §1

[3] = target: T3, Avi-KRAS G12R (1-169) GppNHp/RAF1 RBD-3xFLAG (52-151) (Homo sapiens, UniProt P01116, G12R); assay: Raf1-KRAS G12R-GppNHP disruption HTRF assay (Biological Example 1); format: binding
T3 construct: Avi-KRAS G12R (1-169)
Summary of the method: as §1

[4] = target: T4, Avi-KRAS G12D (1-169) GppNHp/RAF1 RBD-3xFLAG (52-151) (Homo sapiens, UniProt P01116, G12D); assay: Raf1-KRAS G12D-GppNHP disruption HTRF assay (Biological Example 1); format: binding
T4 construct: Avi-KRAS G12D (1-169)
Summary of the method: as §1

SW620 cells (KRAS G12V) = assay: Cell-based pERK HTRF assay in SW620 cell (Biological Example 4); conditions: Homo sapiens, SW-620, SW620 (KRAS G12V) cells, pERK HTRF
Summary of the method: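 This assay measures inhibition of ERK phosphorylation downstream of KRAS G12V in intact SW620 cells. Compounds are applied for 4 h over nine half-log concentrations starting at 1 μM, and pERK is quantified by HTRF.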

GP2d cells (KRAS G12D) = assay: Cell-based pERK HTRF assay in GP2d cell (Biological Example 2); conditions: GP2d (KRAS G12D) cells, pERK HTRF
Summary of the method: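 Treatment with test compounds lasted one hour in DMEM containing 10% FBS, with DMSO held at 0.25%. Dilution series: 9 points, half-log spacing, highest 1 μM or 100 nM. Lysates were incubated 4–24 h at room temperature with antibody mix, then HTRF was read at 320 nm excitation.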

[5] = KRAS WT, GppNHp-loaded, class symbols
[6] = KRAS G12V, GppNHp-loaded, class symbols
[7] = KRAS G12R, GppNHp-loaded, class symbols
[8] = KRAS G12D, GppNHp-loaded, class symbols
[9] = KRAS WT, GppNHp-loaded, Table 11
[10] = KRAS G12V, GppNHp-loaded, Table 11
[11] = KRAS G12R, GppNHp-loaded, Table 11
[12] = KRAS G12D, GppNHp-loaded, Table 11

T4 sequence (P01116 1-169 isoform P01116-2 G12D): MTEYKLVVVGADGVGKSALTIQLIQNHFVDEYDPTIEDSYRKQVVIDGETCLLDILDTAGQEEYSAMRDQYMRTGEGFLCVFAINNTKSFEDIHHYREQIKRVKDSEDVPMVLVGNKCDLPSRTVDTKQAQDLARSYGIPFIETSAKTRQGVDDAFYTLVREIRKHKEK
T3 sequence (P01116 1-169 isoform P01116-2 G12R): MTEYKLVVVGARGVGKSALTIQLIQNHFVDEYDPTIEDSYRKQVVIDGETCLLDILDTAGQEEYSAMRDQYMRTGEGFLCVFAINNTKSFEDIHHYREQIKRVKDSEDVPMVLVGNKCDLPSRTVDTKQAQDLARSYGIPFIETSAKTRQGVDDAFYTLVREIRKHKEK
T2 sequence (P01116 1-169 isoform P01116-2 G12V): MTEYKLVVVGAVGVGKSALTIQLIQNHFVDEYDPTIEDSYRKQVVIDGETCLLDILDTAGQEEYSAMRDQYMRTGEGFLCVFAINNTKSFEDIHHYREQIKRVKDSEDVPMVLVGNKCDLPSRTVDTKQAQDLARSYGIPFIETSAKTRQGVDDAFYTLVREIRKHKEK
T1 sequence (P01116 1-169 isoform P01116-2): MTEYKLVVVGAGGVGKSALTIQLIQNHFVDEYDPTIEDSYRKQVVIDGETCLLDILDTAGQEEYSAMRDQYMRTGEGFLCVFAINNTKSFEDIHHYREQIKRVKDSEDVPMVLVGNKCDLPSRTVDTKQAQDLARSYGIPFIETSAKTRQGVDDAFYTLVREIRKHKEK

Row | Compound | IC50 ([1]; KRAS WT-GppNHp/RAF1 RBD HTRF) [nM] | IC50 ([2]; KRAS G12V-GppNHp/RAF1 RBD HTRF) [nM] | IC50 ([3]; KRAS G12R-GppNHp/RAF1 RBD HTRF) [nM] | IC50 ([4]; KRAS G12D-GppNHp/RAF1 RBD HTRF) [nM] | IC50 (SW620 cells (KRAS G12V)) [nM] | IC50 (GP2d cells (KRAS G12D); GP2d) [nM] | IC50 [1, 5] [nM] | IC50 [2, 6] [nM] | IC50 [3, 7] [nM] | IC50 [4, 8] [nM] | IC50 (SW620 cells (KRAS G12V); class symbols) [nM] | IC50 (GP2d cells (KRAS G12D); GP2d, class symbols) [nM] | IC50 [1, 9] [nM] | IC50 [2, 10] [nM] | IC50 [3, 11] [nM] | IC50 [4, 12] [nM] | IC50 (GP2d cells (KRAS G12D)) [nM]
1 | CN1C[C@@H](N(C)c2nc(OC[C@@]34CCCN3C[C@H](F)C4)nc3c(F)c(-c4ccc(F)c5sc(N)c(C#N)c45)c(C(F)(F)F)cc23)CC1=O [Compound 338] | 100 to 1000 | 100 to 1000 | 100 to 1000 | 100 to 1000 | < 100 | < 100 |  |  |  |  |  |  |  |  |  |  | 
2 | CC(=O)N1C[C@@H]2OCCN(c3nc(OC[C@@]45CCCN4C[C@H](F)C5)nc4c(F)c(-c5ccc(F)c6sc(N)c(C#N)c56)c(C(F)(F)F)cc34)[C@@H]2C1 [Compound 481] | 100 to 1000 | 1000 to 10000 | 100 to 1000 | 100 to 1000 | 100 to 1000 | < 100 |  |  |  |  |  |  |  |  |  |  | 
3 | CCN(c1nc(OC[C@@]23CCCN2C[C@H](F)C3)nc2c(F)c(-c3ccc(F)c4sc(N)c(C#N)c34)c(C(F)(F)F)cc12)[C@H]1CCN(C(=O)OC2CCN(C(C)=O)CC2)C1 (atropisomer, axis not shown) [Compound 720] |  |  |  |  |  |  | < 100 | < 100 | < 100 | < 100 | < 100 | < 100 |  |  |  |  | 
4 | CCN(c1nc(OC[C@@]23CCCN2C[C@H](F)C3)nc2c(F)c(-c3ccc(F)c4sc(N)c(C#N)c34)c(C(F)(F)F)cc12)[C@@H]1C[C@@H](C)N(C(=O)N(C)C)C1 (atropisomer, axis not shown) [Compound 525] | 100 to 1000 | 1000 to 10000 | 1000 to 10000 | 1000 to 10000 | < 100 | < 100 |  |  |  |  |  |  |  |  |  |  | 
5 | CC(=O)N1CC[C@H](N(C)c2nc(OC[C@@H]3C[C@@H](F)CN3C)nc3c(F)c(-c4ccc(F)c5sc(N)c(C#N)c45)c(C(F)(F)F)cc23)[C@@H]1C [Compound 226] |  |  |  |  | > 1000 | > 1000 |  |  |  |  |  |  | > 10000 | > 10000 | > 10000 | > 10000 | 
6 | C[C@@H](c1cccnc1N)N(C)c1nc(OC[C@@]23CCCN2C[C@H](F)C3)nc2c(F)c(-c3ccc(F)c4sc(N)c(C#N)c34)c(C(F)(F)F)cc12 (atropisomer, axis not shown) [Compound 601] |  |  |  |  |  |  | 100 to 1000 | 100 to 1000 | 100 to 1000 | 100 to 1000 | < 100 | < 100 |  |  |  |  | 
7 | CN(C)C(=O)c1nn2c(c1C1CC1)CN(c1nc(OCC34CCCN3CC(F)C4)nc3c(F)c(-c4ccc(F)c5sc(N)c(C#N)c45)c(C(F)(F)F)cc13)CC2 (stereo not drawn) [Compound 738] |  |  |  |  |  |  | 100 to 1000 | 100 to 1000 | 100 to 1000 | 100 to 1000 | < 100 | < 100 |  |  |  |  | 
8 | CC(=O)N1C[C@@H](N(C)c2nc(OC[C@@]34CCCN3C[C@H](F)C4)nc3c(F)c(-c4ccc(F)c5sc(N)c(C#N)c45)c(C(F)(F)F)cc23)C[C@H]1C [Compound 277] |  |  |  |  | < 100 | < 100 |  |  |  |  |  |  | 100 to 1000 | 100 to 1000 | 100 to 1000 | 100 to 1000 | 
9 | CCC(=O)N1CC[C@@H](N(C)c2nc(OC[C@@]34CCCN3C[C@H](F)C4)nc3c(F)c(-c4ccc(F)c5sc(N)c(C#N)c45)c(C(F)(F)F)cc23)[C@@H]1C [Compound 299] | 100 to 1000 | 1000 to 10000 | 1000 to 10000 | 100 to 1000 | < 100 | < 100 |  |  |  |  |  |  |  |  |  |  | 
10 | CCN(c1nc(OC[C@@]23CCCN2C[C@H](F)C3)nc2c(F)c(-c3ccc(F)c4sc(N)c(C#N)c34)c(C(F)(F)F)cc12)[C@H]1CCN(C(=O)N2CC(OC)C2)[C@@H]1C (atropisomer, axis not shown) [Compound 761] |  |  |  |  |  |  | < 100 | < 100 | < 100 | < 100 | < 100 | < 100 |  |  |  |  | 
11 | CCN(c1nc(OC[C@@]23CCCN2C[C@H](F)C3)nc2c(F)c(-c3ccc(F)c4sc(N)c(C#N)c34)c(C(F)(F)F)cc12)[C@H]1C[C@H](C)N(C(=O)c2ccon2)C1 (atropisomer, axis not shown) [Compound 766] |  |  |  |  |  |  | < 100 | < 100 | < 100 | < 100 | < 100 | < 100 |  |  |  |  | 
12 | CCN(c1nc(OC[C@@]23CCCN2C[C@H](F)C3)nc2c(F)c(-c3ccc(F)c4sc(N)c(C#N)c34)c(C(F)(F)F)cc12)[C@H]1CCN(C(=O)c2ccno2)C1 (atropisomer, axis not shown) [Compound 552] | < 100 | < 100 | < 100 | < 100 | < 100 | < 100 |  |  |  |  |  |  |  |  |  |  | 
13 | CCN(c1nc(OC[C@@]23CCCN2C[C@H](F)C3)nc2c(F)c(-c3ccc(F)c4sc(N)c(C#N)c34)c(C(F)(F)F)cc12)[C@H]1C[C@@H](COC)N(C(C)=O)C1 (atropisomer, axis not shown) [Compound 632] |  |  |  |  |  |  | 100 to 1000 | 100 to 1000 | 100 to 1000 | 100 to 1000 | < 100 | < 100 |  |  |  |  | 
14 | C[C@]1(CO)CCN1c1nc(OC[C@@]23CCCN2C[C@H](F)C3)nc2c(F)c(-c3ccc(F)c4sc(N)c(C#N)c34)c(C(F)(F)F)cc12 [Compound 429] | 1000 to 10000 | 1000 to 10000 | 1000 to 10000 | 100 to 1000 | < 100 | < 100 |  |  |  |  |  |  |  |  |  |  | 
15 | CN(C)C(=O)[C@H]1CN(c2nc(OC[C@@]34CCCN3C[C@H](F)C4)nc3c(F)c(-c4ccc(F)c5sc(N)c(C#N)c45)c(C(F)(F)F)cc23)CCO1 [Compound 465] | 100 to 1000 | 100 to 1000 | 100 to 1000 | < 100 | < 100 | < 100 |  |  |  |  |  |  |  |  |  |  | 
16 | CN(C)C(=O)N1CC[C@H](N(c2nc(OC[C@@]34CCCN3C[C@H](F)C4)nc3c(F)c(-c4ccc(F)c5sc(N)c(C#N)c45)c(C(F)(F)F)cc23)C2CC2)C1 (atropisomer, axis not shown) [Compound 743] |  |  |  |  |  |  | 100 to 1000 | 100 to 1000 | 100 to 1000 | 100 to 1000 | < 100 | < 100 |  |  |  |  | 
17 | [2H]C([2H])([2H])OC(=O)N1CC[C@H](N(CC)c2nc(OC[C@@]34CCCN3C[C@H](F)C4)nc3c(F)c(-c4ccc(F)c5sc(N)c(C#N)c45)c(C(F)(F)F)cc23)C1 (atropisomer, axis not shown) [Compound 659] |  |  |  |  |  |  | < 100 | < 100 | < 100 | < 100 | < 100 | < 100 |  |  |  |  | 
18 | C[C@@H]1[C@H](N(C)c2nc(OC[C@@]34CCCN3C[C@H](F)C4)nc3c(F)c(-c4ccc(F)c5sc(N)c(C#N)c45)c(C(F)(F)F)cc23)CCN1C(=O)CF [Compound 461] | < 100 | 100 to 1000 | 100 to 1000 | < 100 | < 100 |  |  |  |  |  |  |  |  |  |  |  | < 100
19 | N#Cc1c(N)sc2c(F)ccc(-c3c(C(F)(F)F)cc4c(N(C5CC5)[C@H]5CCN(C(=O)[C@@H]6CC6(F)F)C5)nc(OC[C@@]56CCCN5C[C@H](F)C6)nc4c3F)c12 (atropisomer, axis not shown) [Compound 779] |  |  |  |  |  |  | 100 to 1000 | 100 to 1000 | 100 to 1000 | < 100 | < 100 | < 100 |  |  |  |  | 
20 | CCN(c1nc(OCC23CCCN2CC(F)C3)nc2c(F)c(-c3ccc(F)c4sc(N)c(C#N)c34)c(C(F)(F)F)cc12)C1CCN(C(=O)c2oncc2C)C1 (stereo not drawn) [Compound 804] |  |  |  |  |  |  | < 100 | < 100 | < 100 | < 100 | < 100 | < 100 |  |  |  |  | 
21 | C[C@H]1C[C@H](N(C)c2nc(OC[C@@]34CCCN3C[C@H](F)C4)nc3c(F)c(-c4ccc(F)c5sc(N)c(C#N)c45)c(C(F)(F)F)cc23)CN1C(=O)C1CC1 [Compound 437] | 100 to 1000 | 100 to 1000 | 100 to 1000 | 100 to 1000 | < 100 | < 100 |  |  |  |  |  |  |  |  |  |  | 
22 | N#Cc1c(N)sc2c(F)ccc(-c3c(C(F)(F)F)cc4c(N5CCN6C(=O)OCC6C5)nc(OCC56CCCN5CC(F)C6)nc4c3F)c12 (stereo not drawn) [Compound 428] | 100 to 1000 | 1000 to 10000 | 1000 to 10000 | 1000 to 10000 | < 100 | < 100 |  |  |  |  |  |  |  |  |  |  | 
